Laboratory results taken from US10479819B2 (priority 2014, dated 2019).
Starred links: 1 amine or outer side, 2 acyl side, 3 side chain; linkers in the order of their positions; H or OH if unused. Non-standard residues stand in square brackets, D forms with d. Residues, ends and D or L forms follow the SMILES beside them. Groups on a side chain read outwards from the residue. *: point of attachment. C18 diacid = O=C(O)CCCCCCCCCCCCCCCCC(=O)*; γGlu = O=C(O)[C@H](CCC(=O)[*:2])N[*:1]; PEG2 = NCCOCCOCCC(=O)O; Aib = CC(C)(N)C(=O)O

Experiments:
human GLP-1R = molecular target: T1, human GLP-1R (Homo sapiens, UniProt P43220); test: In vitro activity on GLP-1R, CRE-luciferase HEK-293 cells; assay type: cell-based; conditions: for GLP-1R/GCGR: ratio of EC50 GLP-1R to EC50 GCGR
T1 construct: expressed in transfected cells
T1 sequence (P43220 24-463): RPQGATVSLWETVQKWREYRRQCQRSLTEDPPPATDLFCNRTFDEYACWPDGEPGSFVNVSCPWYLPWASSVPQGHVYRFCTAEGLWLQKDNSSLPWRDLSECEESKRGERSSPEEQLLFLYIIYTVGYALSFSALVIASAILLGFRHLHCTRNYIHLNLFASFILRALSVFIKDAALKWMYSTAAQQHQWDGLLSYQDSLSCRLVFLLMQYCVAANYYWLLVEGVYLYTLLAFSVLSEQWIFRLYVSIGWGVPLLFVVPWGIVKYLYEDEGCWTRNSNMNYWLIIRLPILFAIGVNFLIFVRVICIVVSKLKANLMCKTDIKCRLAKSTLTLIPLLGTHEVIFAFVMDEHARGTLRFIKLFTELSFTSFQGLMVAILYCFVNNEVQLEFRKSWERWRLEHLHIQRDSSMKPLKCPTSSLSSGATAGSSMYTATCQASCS
Experimental: (§1) 5000 of HEK-293 cells, which are used in CRE-luciferase system and express human GCGR or GLP-1R stably, were inoculated into 384 well plates according to […] DMEM/10% FBS media/well. […] After incubation, […] of luciferase reagent was added directly to each plate and mixed gently for 2 minutes. The plates were placed into an Elmer Perkin plate reader for reading. Concentration curve of the compound was made by drawing software Prism 5, and the EC50 value was calculated.

human GCGR = molecular target: T2, human GCGR (Homo sapiens, UniProt P47871); test: In vitro activity on GCGR, CRE-luciferase HEK-293 cells; assay type: cell-based; conditions: read-out: GCGR (EC50)
T2 construct: expressed in transfected cells
T2 sequence (P47871 26-477): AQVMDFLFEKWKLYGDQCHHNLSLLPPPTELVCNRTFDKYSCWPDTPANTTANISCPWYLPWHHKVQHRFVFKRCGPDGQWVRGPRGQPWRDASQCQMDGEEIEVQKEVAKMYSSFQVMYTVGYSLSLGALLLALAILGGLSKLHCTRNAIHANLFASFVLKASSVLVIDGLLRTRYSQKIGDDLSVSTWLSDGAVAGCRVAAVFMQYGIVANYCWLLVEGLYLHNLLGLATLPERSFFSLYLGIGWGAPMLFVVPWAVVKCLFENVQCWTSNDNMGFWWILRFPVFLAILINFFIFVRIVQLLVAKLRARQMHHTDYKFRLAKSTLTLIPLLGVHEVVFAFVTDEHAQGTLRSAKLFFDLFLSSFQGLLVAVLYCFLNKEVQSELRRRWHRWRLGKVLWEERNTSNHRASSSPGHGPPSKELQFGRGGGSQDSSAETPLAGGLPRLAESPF
Experimental: as §1

DIO mice = test: Body weight reduction in DIO (obese) mice; assay type: in vivo; conditions: 250 μg/kg SC daily, day 11 to day 30, DIO mice; for body weight compared with normal saline group: P<0.05
Text: Forty 25-week-old DIO mice (Nanjing University model animal research center) were randomly divided into five groups (compound 4, 5, 6, 7, and normal saline group), 8 in each group, having no difference in the basis weight of each group.

[1] = Pharmacokinetic analysis after IV or SC administration in male CD1 mice; conditions: for Tmax / half-life: iv
Experimental: Pharmacokinetic parameters of the drugs were calculated by methods of model dependence (for data obtained from IV) and model independence (data obtained from SC).

male C57B1/6J mice = test: Oral glucose tolerance test in male C57B1/6J mice; assay type: in vivo; conditions: 250 μg/kg; for AUC of blood glucose in all four OGTT curve periods (0-480 min) compared with carrier (PBS): P<0.05; for effect on oral glucose tolerance: male C57B1/6J mice
Experimental: 12-16 week-old male C57B1/6J mice (Nanjing University model animal research center) were randomly divided into groups 8 in each group, according to similar blood glucose (assessed by the blood samples obtained from the tail tip). After fasting (for 6 hours), the animals were administrated, and about 4 hours later, initial blood samples (fasting blood glucose level) were taken. Subsequently, the animals were administrated with an oral dose of glucose, and then put back into their cages (t=0). Blood glucose was measured at t=15 minutes, t=30 minutes, t=60 minutes, t=90 minutes and t=120 minutes. And then the animals were administrated with an oral dose of glucose again, and blood glucose was tracked until 8 hours.

SMILES	GLP-1R/GCGR (human GLP-1R)	EC50 (human GCGR)	EC50 (human GLP-1R)	weight loss (DIO mice)	body weight compared with normal saline group (DIO mice)	clinical adverse effect ([1]; IV or SC route, male CD1 mice)	Tmax ([1]; mouse, in vivo)	half-life ([1]; mouse, in vivo)	AUC of blood glucose in all four OGTT curve periods (0-480 min) compared with carrier (PBS) (male C57B1/6J mice)	effect on oral glucose tolerance (male C57B1/6J mice)	clinical adverse effect ([1]; mouse, in vivo)	peak time ([1]; mouse, in vivo, sc)
CSCC[C@H](NC(=O)[C@H](CC(C)C)NC(=O)[C@H](Cc1c[nH]c2ccccc12)NC(=O)[C@H](CCC(N)=O)NC(=O)[C@@H](NC(=O)[C@H](Cc1ccccc1)NC(=O)[C@H](CC(=O)O)NC(=O)[C@H](CCC(N)=O)NC(=O)[C@H](C)NC(=O)[C@H](CCCNC(=N)N)NC(=O)[C@H](CCCNC(=N)N)NC(=O)C(C)(C)NC(=O)[C@H](CC(=O)O)NC(=O)[C@H](CC(C)C)NC(=O)[C@H](Cc1ccc(O)cc1)NC(=O)[C@H](CCCCN)NC(=O)[C@H](CO)NC(=O)[C@H](CCCCNC(=O)CCOCCOCCNC(=O)CCOCCOCCNC(=O)CC[C@H](NC(=O)CCCCCCCCCCCCCCCCC(=O)O)C(=O)O)NC(=O)[C@H](CC(=O)O)NC(=O)[C@H](CO)NC(=O)[C@@H](NC(=O)[C@H](Cc1ccccc1)NC(=O)[C@@H](NC(=O)CNC(=O)[C@H](CCC(N)=O)NC(=O)[C@@H](CO)NC(=O)[C@@H](N)Cc1c[nH]cn1)[C@@H](C)O)[C@@H](C)O)C(C)C)C(=O)N[C@@H](CC(N)=O)C(=O)N[C@H](C(=O)NCC(=O)NCC(=O)N1CCC[C@H]1C(=O)N[C@@H](CO)C(=O)N[C@@H](CO)C(=O)NCC(=O)N[C@@H](C)C(=O)N1CCC[C@H]1C(=O)N1CCC[C@H]1C(=O)N1CCC[C@H]1C(=O)N[C@@H](CO)C(N)=O)[C@@H](C)O [Compound 8]	1.1	0.18 nM	–	–	–	–	–	–	–	–	–	–
CSCC[C@H](NC(=O)[C@H](CC(C)C)NC(=O)[C@H](Cc1c[nH]c2ccccc12)NC(=O)[C@H](CCC(N)=O)NC(=O)[C@@H](NC(=O)[C@H](Cc1ccccc1)NC(=O)[C@H](CC(=O)O)NC(=O)[C@H](CCC(N)=O)NC(=O)[C@H](C)NC(=O)[C@H](CCCNC(=N)N)NC(=O)[C@H](CCCNC(=N)N)NC(=O)C(C)(C)NC(=O)[C@H](CC(=O)O)NC(=O)[C@H](CC(C)C)NC(=O)[C@H](CCCCN)NC(=O)[C@H](CCCCNC(=O)CCOCCOCCNC(=O)CCOCCOCCNC(=O)CC[C@H](NC(=O)CCCCCCCCCCCCCCCCC(=O)O)C(=O)O)NC(=O)[C@H](CO)NC(=O)[C@H](Cc1ccc(O)cc1)NC(=O)[C@H](CC(=O)O)NC(=O)[C@H](CO)NC(=O)[C@@H](NC(=O)[C@H](Cc1ccccc1)NC(=O)[C@@H](NC(=O)CNC(=O)[C@H](CCC(N)=O)NC(=O)[C@@H](CO)NC(=O)[C@@H](N)Cc1c[nH]cn1)[C@@H](C)O)[C@@H](C)O)C(C)C)C(=O)N[C@@H](CC(N)=O)C(=O)N[C@H](C(=O)NCC(=O)NCC(=O)N1CCC[C@H]1C(=O)N[C@@H](CO)C(=O)N[C@@H](CO)C(=O)NCC(=O)N[C@@H](C)C(=O)N1CCC[C@H]1C(=O)N1CCC[C@H]1C(=O)N1CCC[C@H]1C(=O)N[C@@H](CO)C(N)=O)[C@@H](C)O [Compound 18] (H-H[dS]QGTFTSDYSK([PEG2-PEG2-γGlu-C18 diacid])KLD[Aib]RRAQDFVQWLMNTGGPSSGAPPPS-NH2; N-terminus assumed)	4.2	0.18 nM	–	–	–	–	–	–	–	–	–	–
CSCC[C@H](NC(=O)[C@H](CC(C)C)NC(=O)[C@H](Cc1c[nH]c2ccccc12)NC(=O)[C@H](CCC(N)=O)NC(=O)[C@@H](NC(=O)[C@H](Cc1ccccc1)NC(=O)[C@H](CC(=O)O)NC(=O)[C@H](CCC(N)=O)NC(=O)[C@H](C)NC(=O)[C@H](CCCNC(=N)N)NC(=O)[C@H](CCCNC(=N)N)NC(=O)[C@H](CCCCNC(=O)CCOCCOCCNC(=O)CCOCCOCCNC(=O)CCCCCCCCCCCCCCCCC(=O)O)NC(=O)[C@H](CC(=O)O)NC(=O)[C@H](CC(C)C)NC(=O)[C@H](Cc1ccc(O)cc1)NC(=O)[C@H](CCCCN)NC(=O)[C@H](CO)NC(=O)[C@H](Cc1ccc(O)cc1)NC(=O)[C@H](CC(=O)O)NC(=O)[C@H](CO)NC(=O)[C@@H](NC(=O)[C@H](Cc1ccccc1)NC(=O)[C@@H](NC(=O)CNC(=O)[C@H](CCC(N)=O)NC(=O)[C@@H](CO)NC(=O)[C@@H](N)Cc1c[nH]cn1)[C@@H](C)O)[C@@H](C)O)C(C)C)C(=O)N[C@@H](CC(N)=O)C(=O)N[C@H](C(=O)NCC(=O)NCC(=O)N1CCC[C@H]1C(=O)N[C@@H](CO)C(=O)N[C@@H](CO)C(=O)NCC(=O)N[C@@H](C)C(=O)N1CCC[C@H]1C(=O)N1CCC[C@H]1C(=O)N1CCC[C@H]1C(=O)N[C@@H](CO)C(N)=O)[C@@H](C)O [Compound 9]	2.9	0.18 nM	–	–	–	–	–	–	–	–	–	–
CC[C@H](C)[C@H](NC(=O)[C@H](Cc1ccccc1)NC(=O)[C@H](CCC(=O)O)NC(=O)[C@H](CCCCNC(=O)CCOCCOCCNC(=O)CCOCCOCCNC(=O)CC[C@H](NC(=O)CCCCCCCCCCCCCCCCC(=O)O)C(=O)O)NC(=O)[C@H](C)NC(=O)[C@H](C)NC(=O)[C@H](CCCCN)NC(=O)[C@H](CCC(=O)O)NC(=O)[C@H](CC(=O)O)NC(=O)[C@H](CC(C)C)NC(=O)[C@H](Cc1ccc(O)cc1)NC(=O)[C@H](CCCCN)NC(=O)[C@H](CO)NC(=O)[C@H](Cc1ccc(O)cc1)NC(=O)[C@H](CC(=O)O)NC(=O)[C@H](CO)NC(=O)[C@@H](NC(=O)[C@H](Cc1ccccc1)NC(=O)[C@@H](NC(=O)CNC(=O)[C@H](CCC(N)=O)NC(=O)[C@@H](CO)NC(=O)[C@@H](N)Cc1c[nH]cn1)[C@@H](C)O)[C@@H](C)O)C(=O)N[C@@H](CCC(=O)O)C(=O)N[C@@H](Cc1c[nH]c2ccccc12)C(=O)N[C@@H](CC(C)C)C(=O)N[C@@H](CC(C)C)C(=O)N[C@@H](CC(N)=O)C(=O)NCC(=O)NCC(=O)N1CCC[C@H]1C(=O)N[C@@H](CO)C(=O)N[C@@H](CO)C(=O)NCC(=O)N[C@@H](C)C(=O)N1CCC[C@H]1C(=O)N1CCC[C@H]1C(=O)N1CCC[C@H]1C(=O)N[C@@H](CO)C(N)=O [Compound 4] (H-H[dS]QGTFTSDYSKYLDEKAAK([PEG2-PEG2-γGlu-C18 diacid])EFIEWLLNGGPSSGAPPPS-NH2)	0.3	–	0.13 nM	about 20%	significantly lower	no clinical adverse effect	~12 h	4 to 6 h	significantly decreased	significantly reduced the oral glucose tolerance	–	–
CSCC[C@H](NC(=O)[C@H](CC(C)C)NC(=O)[C@H](Cc1c[nH]c2ccccc12)NC(=O)[C@H](CCC(N)=O)NC(=O)[C@@H](NC(=O)[C@H](Cc1ccccc1)NC(=O)[C@H](CC(=O)O)NC(=O)[C@H](CCC(N)=O)NC(=O)[C@H](C)NC(=O)[C@H](CCCNC(=N)N)NC(=O)[C@H](CCCNC(=N)N)NC(=O)C(C)(C)NC(=O)[C@H](CC(=O)O)NC(=O)[C@H](CC(C)C)NC(=O)[C@H](Cc1ccc(O)cc1)NC(=O)[C@H](CCCCN)NC(=O)[C@H](CO)NC(=O)[C@H](CCCCNC(=O)CCOCCOCCNC(=O)CCOCCOCCNC(=O)CCCCCCCCCCCCCCCCC(=O)O)NC(=O)[C@H](CC(=O)O)NC(=O)[C@H](CO)NC(=O)[C@@H](NC(=O)[C@H](Cc1ccccc1)NC(=O)[C@@H](NC(=O)CNC(=O)[C@H](CCC(N)=O)NC(=O)[C@@H](CO)NC(=O)[C@@H](N)Cc1c[nH]cn1)[C@@H](C)O)[C@@H](C)O)C(C)C)C(=O)N[C@@H](CC(N)=O)C(=O)N[C@H](C(=O)NCC(=O)NCC(=O)N1CCC[C@H]1C(=O)N[C@@H](CO)C(=O)N[C@@H](CO)C(=O)NCC(=O)N[C@@H](C)C(=O)N1CCC[C@H]1C(=O)N1CCC[C@H]1C(=O)N1CCC[C@H]1C(=O)N[C@@H](CO)C(N)=O)[C@@H](C)O [Compound 6]	0.3	–	–	about 20%	significantly lower	–	~12 h	4 to 6 h	significantly decreased	significantly reduced the oral glucose tolerance	no clinical adverse effect	more than 12 hours
